Source: US20160193328A1, “Immunoadjuvant Compositions and uses Thereof” (INSERM (INSTITUT NATIONAL DE LA SANTÉ ET DE LA RECHERCHE …, priority 2013, published 2016)

Key:
[1] = test system: OVA-specific B cells; assay: OVA-specific B cell response in dLN after immunisation (flow cytometry); assay type: in vivo, C57Bl/6 mice; settings: TLR agonist added to IFA; 100 μg OVA s.c.; 14 days; FIG. 2A
Description: (§1) Mice were either i.p. injected or immunized s.c. at the base of tail with 40 μg of peptide 1W1K, 100 μg of OVA, 200 μg of Ea-FITC in the indicated adjuvant with or without soluble TLR agonist, in a final volume of 200 µL. To target moDC, mice were immunised s.c. with 1.2×1010 beads (which correspond to 40 μg Ea52-68, 1W1K or 100 μg OVA) in indicated adjuvant with or without soluble TLR agonist. At indicated times post-immunisation, spleen or dLN (inguinal and periaortic) were collected and cells were stained for flow cytometry analysis.
For population analysis, dLN were harvested from mice and single cell suspensions were prepared in PBS with 2% FCS, 5 mM EDTA. For DC analysis, lymphoid organs were dissociated using 125 μg/mL LiberaseTL (Roche) and 40 μg/mL DNAase I (Sigma-Aldrich) at 37° C. for 20 min. […] Data were collected on a BD LSRII™ (BD Biosciences) and analysed using FlowJo software (Tree Star).
We hypothesized that an increase in the CD4+ T cell help and specifically an increase of the Tfh cells, the critical regulators of B cell responses, could result in a greater B cell response to the Ag after addition of TLR agonist to another adjuvant. The murine B cell response to ovalbumin (OVA) in wt animals is a valuable immunisation model that can be monitored via the polyclonal Ig repertoires. OVA-specific B cells can be detected by flow cytometry as CD3-IgD− cells that bind specifically to A1exa488-conjugated OVA (OVA+) (data not shown). […] Using this strategy, we determined if addition of TLR agonist to IFA impacts OVA-specific B cell responses in vivo. […]

[2] = test system: 1W1K-specific Tfh cells; assay: 1W1K-specific CD4+ T cell and Tfh cell response in draining lymph nodes after immunisation (pMHCII tetramer flow cytometry); assay type: in vivo, C57Bl/6 mice; settings: for 1W1K-specific Tfh cells in the dLN / amount of 1W1K-specific CD4+ T cells / total number of CD4+ T cells in the dLN: TLR agonist added to IFA; for 1W1K-specific Tfh cells in the dLN: 40 μg 1W1K s.c., 9 days, FIG. 1A; for amount of 1W1K-specific CD4+ T cells / total number of CD4+ T cells in the dLN: 1W1K s.c., peak of primary response, versus IFA only
Description: as §1
To block IL-6 signalling, i.p. injections of 100 μg D7715A7 mAb (anti-IL-6R[…], eBioscience) or Rat IgG2b isotype control were performed at day −1 and +4 post-immunisation. To deplete mice of monocytes, i.v. injections of 250 μL of clodronate liposomes or control PBS liposomes (clodronateliposome.com) were performed from day −1 every second day.
For population analysis, dLN were harvested from mice and single cell suspensions were prepared in PBS with 2% FCS, 5 mM EDTA. For DC analysis, lymphoid organs were dissociated using 125 μg/mL LiberaseTL (Roche) and 40 μg/mL DNAase I (Sigma-Aldrich) at 37° C. for 20 min. 1×10^8 cells/ml were labelled at 4° C. for 45 min with mAbs: Reagents from BD Pharmingen [AlexaFluor488-K112-91 (anti-Bcl-6); PE-M1/70 (anti-CD11b), PE-281-2 (anti-CD138); Cy5PE-M1/70 (anti-CD11b); APC-2G8 (anti-CXCR5); V500-500A2 (anti-CD3); Pacific Blue-53-6.7 (anti-CD8α); Biotin-Jo2 (anti-CD95); Biotin-2G8 (anti-CXCR5)], Reagents from eBioscience [FITC-eBio1D3 (anti-CD19), FITC-RA3-6B2 (anti-B220), FITC-RM4-5 (anti-CD4); PE-MAR-1 (anti-FceR1), PE-205yekta (anti-CD205), PE-2E7 (anti-CD 103), PE-MP5-20F3 (anti-IL-6); Cy5PE-RM4-5 (anti-CD4); Cy7PE-N418 (anti-CD11c), Cy7PE-53-6.7 (anti-CD8α); Cy5.5PE-anti-CD19, Cy5.5PE-HK1.4 (anti-Ly-6c); APC-N418; AlexaFluor647 anti-GL-7; AlexaFluor700-MEL-14 (anti-CD62L), AlexaFluor700-eBio1D3, AlexaFluor700-IM7 (anti-CD44); APCeFluor780-IM7, APCeFluor780-BM8 (anti-F4/80), APCeFluor780-RA3-6B2; eFluor450-11-26c (anti-IgD), eFluor450-MEL-14; biotin-Y-Ae], reagent from R&D PE-475301(anti-CCR2). Before data collection […] propidium iodide (PI) was added to samples. 1W1K-IAb tetramer was obtained from NIH Tetramer core facility. For IL-6 intracellular staining cell suspensions were incubated for 4 hr at 37° C. in the presence of 3 μg/mL Golgi Plug (BD Bioscience) and 4 μM Monensin, fixed and permabilised using BD Fixation/Permeabilisation kit. Before permeabilisation cells were stained with Fixable Viability Dye eFluor450 or eFluor660 (eBioscience). Data were collected on a BD LSRII™ (BD Biosciences) and analysed using FlowJo software (Tree Star).
6-8-wk-old C57Bl/6 mice were irradiated (0.85 Gy) the day before i.v. injection of 1×10^7 T cell-depleted BM cells that consisted of a mix of 70% from CD11c-DTR or JHT supplemented with 30% from TLR9KO, Myd88KO, TRIFKO, IL-6K0 or wt CD45.1 C57Bl/6 mice. After 8 wk, the chimeras with CD11c-DTR BM were i.p. treated every second day with 4 ng/g body weight DTx (Sigma-Aldrich) and 1 day before immunisation with 20 ng/mouse s.c. Treated animals were then s.c. immunised either with 1W1K or OVA as described above.
The combination of adjuvant to a peptide favours robust T-dependent B cell immunity. To test whether addition of TLR agonists to other vaccine adjuvant could have a synergistic effect on the induced immune response, we examined the I-Ab restricted murine CD4+ T cell response to a peptide variant ([…], called 1W1K peptide hereafter, SEQ ID NO:1) of the I-E alpha chain immunodominant peptide 52-68 (Ea52-68) in C57Bl/6 mice. We followed the 1W1K-specific CD4+ T cells with the corresponding pMHCII tetramer in the draining lymph nodes (dLN) after sub-cutaneous (s.c.) immunisation in Incomplete Freund's adjuvant (IFA). At the peak of the effector CD4+ T cell response, we detected the CD44+ and pMHCII tetramer+1W1K-specific CD4+ T cells in the dLN (data not shown). […]

[3] = test system: OVA-specific IgG; assay: OVA-specific IgG in serum by ELISA after immunisation; assay type: in vivo, C57Bl/6 mice
[4] = test system: IL-6; assay: IL-6 in serum of immunised animals (IL-6 ELISA kit); assay type: in vivo, mice; settings: 4 hours after i.p. injection; 1W1K in Alum
[5] = BM chimeras (JHT + MyD88KO) lacking MyD88 signalling in B cells, added to IFA

Substance	OVA-specific GC-B cells [1]	OVA-specific PC [1]	overall OVA-specific B cells [1]	enhancing effect on 1W1K-specific Tfh cells [2, 5]	1W1K-specific Tfh cells in the dLN [2]	amount of 1W1K-specific CD4+ T cells [2]	total number of CD4+ T cells in the dLN [2]	1W1K-specific Tfh cell differentiation ([2]; added to Alum, i.p., JHT mice (no functional B cells), 5 days)	increase of 1W1K-specific Tfh response ([2]; chimeras (CD11c-DTR + MyD88KO), DTx: MyD88 signalling in CD11c+ cells impaired, FIG. 3B)	enhancing effect on OVA-specific IgG [3, 5]	circulating OVA-specific IgG ([3]; IFA supplemented with TLR agonist, 14 days, FIG. 2B)	IL-6 in the serum, sensitised JHT animals compared to sensitised wt mice [4]
lipopolysaccharide [LPS]	increased	increased	increased	also observed	induced an increase	did not statistically change	did not statistically change	enhanced	not observed	also observed	significant increase	significant decrease
poly(I:C)					had no enhancing effect	did not statistically change	did not statistically change					
